Results reported in PMC12571071, “Preventing neuropathy and improving anticancer chemotherapy with a carbazole-based compound” (Science Advances, 2025).

Key:
HeLa cells = assay: 1H NMR metabolomic profiling of HeLa cells; assay type: cell-based, human; conditions: 12 μM, 2 hours
Protocol: HeLa cells (1 × 10^6) were seeded in Ø100-mm cell culture dishes and allowed to adhere for 48 hours. Cells were then treated with DMSO or 12 μM Carba1 for 2 hours at 37°C and 5% CO2. After treatment, the medium was removed, and cells were washed with PBS at R.T. before quenching with methanol at −20°C and scrapping ([70]). Dried extracts were obtained by evaporating the solvent under gentle N2 flow and stored at −80°C until analysis. For NMR, extracts were resuspended in 620 μl of 100% D2O phosphate buffer (pH 7.4), and 550 μl was transferred into 5-mm NMR tubes. Untargeted NMR analysis was performed at 27°C on a Bruker Avance IVDr spectrometer (600 MHz, ^1H resonance) with a conventional Broadband Inverse (BBI) probe. ^1H metabolic profiles were acquired using a NOESY experiment with water presaturation (Bruker pulse program noesygppr1d) and a spectral width of 11,904.792 Hz. Experimental parameters included a 10-ms mixing time, 2-s acquisition time, 3-s recycle delay, and 512 scans. The 90°s pulse length was calibrated at ~11.09 μs per sample after automatic shimming and tuning. NMR free induction decays were multiplied by an exponential function corresponding to a line broadening of 0.3 Hz before Fourier transform. […]

[1] = tested on: HeLa cells xenografted in mice; assay: HeLa tumor xenograft in nude mice; assay type: in vivo; conditions: PTX 8 mg/kg
Protocol: Five-week-old NMRI nude mice (Janvier Labs) were implanted with 10 × 10^6 HeLa cells (200 μl in PBS) on the right flank. On day 6, the mean tumor volume was 120 ± 4 mm^3. […] Behavior and signs of pain were monitored daily. Body weight and tumor volume were measured two to three times per week using electronic calipers, with tumor volume (in cubic millimeters) calculated as length (millimeters)/2 × width^2 (square millimeters). Tumor growth inhibition was analyzed using GraphPad Prism with one-way analysis of variance (ANOVA) and Dunn’s multiple comparisons test for treatment versus vehicle. Mice were euthanized on day 20, when the vehicle group reached ethical limits. Blood samples were collected by intracardiac puncture in EDTA-coated tubes for differential blood counts and hemograms, outsourced to IDEXX BioAnalytics. For biochemical analysis, blood was collected in heparin-lithium tubes, and plasma was isolated by centrifugation and frozen at −80°C. Plasma was analyzed using MS Scan II (Melet Schloesing) and VET16 reagent rotors to measure markers of renal and hepatic function, metabolism, and nutritional and muscular status. Differential counts, hemograms, and biochemical data were analyzed with GraphPad Prism using Kruskal-Wallis test and Dunn’s multiple comparisons test.

carbonic anhydrase (CA) = assay: AS-MS binding assay, carbonic anhydrase (negative control); conditions: 10 μM compound, 3 μM carbonic anhydrase
Protocol: To this end, Carba1 or FK866 (positive control of NAMPT binding) was first incubated with NAMPT or carbonic anhydrase (CA; negative control). Protein-ligand complexes were separated from the unbound compounds by size exclusion chromatography (SEC). To quantify the protein-bound fraction, the complexes were then dissociated using reverse-phase chromatography, and the compounds were analyzed and quantified by mass spectrometry. By comparing the amounts of compound before (preSEC) and after (postSEC) SEC in the presence of CA or NAMPT, we assessed their ability to selectively bind to NAMPT.
AS-MS was used to assess compound binding to NAMPT. AS-MS was performed by Edelris SAS (www.edelris.com/), which has developed the commercial AS-MS service “EDEN platform,” based on ([71]). Conditions consisted of protein (NAMPT and CA) at 3 μM and compounds (Carba1 and FK866) at 10 μM dissolved in corporate buffer.

DRG explants = assay: Mouse embryonic 3D DRG explants: axonal degeneration and myelination (MBP/TUBB3); assay type: cell-based; conditions: 72 h
Protocol: Embryonic DRG 3D explants were prepared from E13.5 mouse embryos and seeded at one explant/1.9 cm^2 on acid-treated, Matrigel-coated glass coverslips ([64], [65]). Explants were cultured at 37°C under 5% CO2 and high saturated in humidity. From DIV 0 to DIV 3, cultures were maintained in C-medium supplemented with 10% FBS, 1× GlutaMAX, D-glucose (4 g/liter), 2.5S nerve growth factor (NGF; 50 ng/ml), and 1% penicillin/streptomycin. From DIV 3 to DIV 7, neurobasal medium supplemented with 1× B27, 1× GlutaMAX, D-glucose (4 g/liter), 2.5S NGF (50 ng/ml), and 1% penicillin/streptomycin was used to promote axon development. From DIV 7 onward, differentiation medium [C-medium supplemented with 5 μM forskolin, ascorbic acid (50 μg/ml), and heparin (25 μg/ml)] was used to support glial cell maturation and myelination, with medium changes occurring every 2 days.
DRGs were fixed with 10% formalin for 20 min at R.T., washed with PBS, and permeabilized for 10 min with PBS–0.1% Triton X-100. Blocking was performed using a solution of 3% bovine serum albumin (BSA), 0.1% glycine, and 5% goat preimmune serum in PBS for 2 hours at R.T. DRGs were then washed in PBS and incubated overnight at 4°C with of anti-TUBB3 (1 μg/ml) and anti-MBP (1 μg/ml). After PBS washes, secondary antibodies (goat anti-mouse Alexa Fluor 488, 1:1000, and goat anti-rabbit Alexa Fluor 647, 1:1000) were applied for 1 hour at R.T. Explants were mounted with ProLong Gold antifade reagent with 4′,6-diamidino-2-phenylindole (DAPI).
Images of random fields of DRG explants, fixed in 4% formaldehyde and immunostained for TUBB3 and MBP, were captured with consistent acquisition times across samples, using a Zeiss AxioImager M2 microscope, equipped with a Hamamatsu Orca R2 camera. Image analysis was performed using Fiji software. The images were thresholded using the default global autothreshold method. For each field, MBP^+ segments were counted and normalized to the TUBB3^+ area.

## Cc1cc(-n2cccc2)c(C)c2c1[nH]c1ccc(Cl)cc12 [Compound 1]
HeLa cells
  GTP levels: significant increase
  NAD+ abundance: significant decrease
[1]; i.v. every 2 days, Carba1 60 mg/kg alone or with PTX
  tumor size: no significant tumor size changes
[1]; i.v., Carba1 60 mg/kg, or combination
  toxicity (blood counts, markers of renal or hepatic function): no detectable toxicity
Carbonic anhydrase (CA)
  binding to CA (AS-MS): neither FK866 nor Carba1 was found to bind CA
DRG explants; 12 μM Carba1 with 500 nM PTX
  fragmented axons in DRG explants under PTX: reduced number of fragmented axons
  myelin staining, Carba1 combined with PTX vs PTX alone: substantially improved
DRG explants; Carba1 12 μM or PTX 500 nM
  MBP staining (axonal myelination), agent alone: had no effect
